What was measured:
NOD islets [1] = test: NOD islets treated with BH3 mimetics, senescence marker mRNA; format: cell-based, mouse; details: NOD islets treated with BH3 mimetic
Excerpt: Example 4. BH3 mimetics preferentially eliminate SASP beta cells in NOD mice. To determine the role of SASP cells in the development of T1D, we next explored whether pro-survival checkpoints could be exploited to promote selective deletion of senescent beta cells. […] The Bcl-2 family contains a hydrophobic groove called the BH3 domain and ‘BH3 mimetics’ are pharmacological compounds that mimic the binding of the BH3-only initiator proteins to the pro-survival members. The BH3 mimetics can trigger apoptosis with some specificity in cells that have high levels of Bcl-2 or the related members. A number of small molecule inhibitors that target Bcl-2, Bcl-xL, Bcl-w or Mcl-1 proteins have been developed and some of them have been used to preferentially trigger apoptosis in senescent cells, both in vitro and in vivo. To determine which Bcl-2 pro-survival members were relevant to SASP islet cells, we treated NOD islets with BH3 mimetics that had different specificities. ABT-737 targets Bcl-2 and family members Bcl-xL and Bcl-w, ABT-199 selectively targets Bcl-2, and Maritoclax targets only Mcl-1. […]

[2] = tested on: CD45-depleted islet cells; test: SASP factors in conditioned media from CD45-depleted islet cells of treated NOD mice; format: in vivo; details: compared to vehicle control mice
Protocol: The secretome of islet cells from the 14-16 week NOD mice was analyzed. Islets depleted of CD45^+ cells were cultured in serum-free media and the resulting culture supernatant, hereafter referred to as conditioned media (CM) was analyzed using a bead-based multi-analyte luminex assay including a variety of key SASP factors and immune cell-specific non-SASP factors (IL-2, Granzyme B). Consistent with the immunohistochemistry analysis, the secretion of SASP factors (IL-6, Serpine1, G-CSF, Ccl2, Mmp9, Mmp12 and Igfpb3) was dramatically higher in the CD45-depleted islet cell populations from 14-week NOD mice as compared with 8-week mice. To determine the time-course of the stress response and SASP in beta cells, younger cohorts of 10 and 12-week old euglycemic NOD mice were analyzed by immunostaining for Cdknla and IL-6.
(§1) Similarly, THP1 chemotaxis activity was reduced in the CM upon ABT-737 treatment of islets relative to vehicle-treated islets ex vivo.

immune compartment = test: Flow cytometry of immune cell types in spleen, pancreatic lymph nodes and islets of treated mice; format: in vivo, NOD mice; details: pancreatic lymph nodes, islets; for proportions or balance of effector T cells, B cells and regulatory T cells: relative to vehicle control mice
Protocol: (§2) Example 5. Targeted depletion of SASP beta cells prevents diabetes in NOD mice The impact of senolytic treatments on immune cells was assessed. In islets from NOD mice treated with ABT-737, there was a 2-fold increase in apoptotic cells, as measured by flow cytometry for Annexin V and propidium iodide, in the endocrine compartment compared to vehicle control mice (FIG. 1). […] Flow cytometry was then used to examine the distributions and proportions of main lymphoid cell types involved in T1D in the spleen, pancreatic lymph nodes, and islets from vehicle control and ABT-737- and ABT-199-treated mice.

NOD mice = test: Diabetes incidence in NOD mice after senolytic treatment; format: in vivo
Protocol: FIG. 2 depicts the incidence of diabetes in a cohort of NOD mice treated with ABT-199 (n=5) or vehicle (n=5).
For studies using ABT-737, 10 week old euglycemic NOD/ShiltJ mice were given oral gavage of 100 mg/kg ABT-737 or vehicle (30% propylene glycol, 5% Tween-80 and 65% D5W) for 3 consecutive days followed by a break for 4 days and then again treated for 3 days (a total of 6 doses), and then untreated for 2 weeks followed by three consecutive days of ABT-737 or vehicle treatment and then allowed to age without further treatment until 28 weeks of age.
To determine whether clearance of SASP beta cells prevented diabetes, 10 week euglycemic NOD mice were administered ABT-737 by oral gavage for two weeks, followed by another dose at 16 weeks and allowed to age. Strikingly, while 60% of vehicle control mice were diabetic at this time, only 40% of ABT-737-treated mice became diabetic. We performed a similar study with ABT-199, administering the drug by oral gavage for 2 weeks from 11-13 weeks of age and allowing the mice to age to 30 weeks. Remarkably, while 100% of the controls became diabetic by 28 weeks, only 10% of the ABT-199-treated mice were diabetic (FIG. 2).

SASP beta cells = test: ABT-737 oral gavage in NOD mice, immunostaining of senescence and SASP markers in beta cells; format: in vivo; details: oral gavage for 1 week
Protocol: To determine whether ABT-737 targeted SASP beta cells for apoptosis in vivo, NOD mice were administered ABT-737 via oral gavage for 1 week followed by analysis of senescence and SASP markers by immunostaining.

[3] = tested on: NOD MEFs and 8-week NOD islet cells; test: Paracrine senescence activity of conditioned media from islet cells of treated mice; format: cell-based, mouse; details: CM from CD45-depleted islet cells of treated mice, on NOD MEFs and 8-week NOD islet cells
Protocol: Example 3. Non-cell autonomous activities of islet SASP. To address whether the SASP of beta cells had non-cell autonomous effects resembling SASP, the ability of secreted factors from CD45-depleted islet cells of 14 wk NOD mice to induce senescence in NOD mouse embryonic fibroblasts (MEFs) and in 8 week NOD islets (when senescence is not observed) was assessed. When early passage NOD MEFs were cultured in the presence of CM from 14 wk CD45-depleted NOD islet cells (NCM) they induced Cdkn1a and Cdkn2a expression and increased SA-βgal activity, similarly to the senescent MEF CM control (SCM). The NCM was also capable of increasing the proportion of SA-βgal^+ cells in the cultured islets from 8 week old NOD mice.
as §1

human THP-1 cell line = test: THP1 monocyte chemotaxis (transwell) with conditioned media of treated islets; format: cell-based; details: treatment of islets ex vivo, relative to vehicle-treated islets
Protocol: The ability of CM from NOD islet cells and human islets to induce monocyte chemotaxis using the transwell assay was tested using the human THP-1 cell line. NCM was capable of stimulating chemotaxis 3-fold over the SFM control, similarly to the positive control, serum-free media conditioned with recombinant mouse CCL2. In addition, CM from human islets expressing SASP induced THP1 chemotaxis ˜5-fold over the SFM control.
as §1

NOD islets [4] = test: Apoptosis in islets of treated NOD mice (Annexin V/propidium iodide flow cytometry, TUNEL); format: in vivo
Protocol: FIG. 1 depicts the abundance of apoptotic cells (Annexin V^+) in the CD45-(endocrine enriched) fractions of NOD islets treated with ABT-737 for two weeks, compared to control vehicle-treated mice (n=2 mice per group), error bars are s.d. *p<0.05, two-tailed T-test.
as §2

[5] = tested on: normal human donor islets; test: Bleomycin-induced senescence and SASP in normal human donor islets; format: cell-based
Protocol: Next, normal human donor islets were treated with the chemotherapeutic agent bleomycin to induce double-strand DNA breaks and monitored the development of stress-induced senescence and SASP by qRT-PCR and secretion assays after 5 days, coinciding with the typical onset of SASP.

Row | proportions of macrophages or dendritic cells (immune compartment) | proportions or balance of effector T cells, B cells and regulatory T cells (immune compartment) | Compound | Cdkn1a mRNA from treated islets (NOD islets [1]) | Cdkn2a mRNA from treated islets (NOD islets [1]) | levels of SASP factors in CM from CD45-depleted islet cells [2] | treated mice diabetic (NOD mice; dosed 2 weeks from 11-13 weeks of age, by 28 weeks, 100% of controls diabetic) | Cdkn2a expression in beta cells (immunostaining) (SASP beta cells) | reduction in Cdkn2a+ beta cells (SASP beta cells; quantification) | SASP marker Mmp2+ beta cells (SASP beta cells; relative to controls) | paracrine senescence activity of CM [3] | THP1 chemotaxis activity of CM (human THP-1 cell line) | increase in apoptotic cells (Annexin V+) in the endocrine compartment (NOD islets [4]; CD45- fraction of NOD islets, treated two weeks, compared to vehicle control mice) | TUNEL staining of apoptotic islet cells (NOD islets [4]; pancreata from treated mice) | apoptosis in the immune compartment (NOD islets [4]; relative to vehicle controls) | treated mice that became diabetic (NOD mice; 10 week NOD mice, oral gavage two weeks plus another dose at 16 weeks, 60% of vehicle controls diabetic) | expression of CDKN1A and CDKN2A (qRT-PCR) ([5]; after 5 days) | SASP factors IL-6, IL-8, IL-1β and TNFα in CM (Luminex) ([5]; compared with control islet CM)
1 | no changes | no significant changes | CC1(C)CCC(CN2CCN(c3ccc(C(=O)NS(=O)(=O)c4ccc(NCC5CCOCC5)c([N+](=O)[O-])c4)c(Oc4cnc5[nH]ccc5c4)c3)CC2)=C(c2ccc(Cl)cc2)C1 [ABT-199] | significant reduction | significant reduction | lower levels of most of the SASP factors | 10% | – | – | – | – | – | – | – | – | – | – | –
2 | no changes | no significant changes | CN(C)CC[C@H](CSc1ccccc1)Nc1ccc(S(=O)(=O)NC(=O)c2ccc(N3CCN(Cc4ccccc4-c4ccc(Cl)cc4)CC3)cc2)cc1[N+](=O)[O-] [ABT-737] | significant reduction | significant reduction | lower levels of most of the SASP factors | – | marked reduction | over 40% | only rarely detected | diminished | reduced | 2 fold | showed TUNEL^+ cells within the islet | no significant differences | 40% | – | –
3 | – | – | O=C(c1ccccc1O)c1[nH]c(Cl)c(Cl)c1-n1c(C(=O)c2ccccc2O)cc(Cl)c1Cl [Maritoclax] | did not have effects | did not have effects | – | – | – | – | – | – | – | – | – | – | – | – | –
4 | – | – | bleomycin | – | – | – | – | – | – | – | – | – | – | – | – | – | induced expression | increased levels

Reference: US11419883B2, “Inhibiting senescent processes in beta cells for the prevention of type 1 diabetes” (The Regents of the University of California, priority 2017, dated 2022)
